US20040110763A1, “Pyrazolopyridine compound and pharmaceutical use thereof” (priority 2000, published 2004)

| melting point | Structure (SMILES) |
| --- | --- |
| 159 to 160 °C | CC(C)n1nc(-c2c(-c3ccccc3)nn3ccc(OCCN4CC4)cc23)ccc1=O |
| 245.5 to 247 °C | COc1ccn2nc(-c3ccccc3)c(-c3ccc(=O)[nH]n3)c2c1 [Example 1, 5-methoxy-3-(3-oxo-2,3-dihydropyridazin-6-yl)-2-phenylpyrazolo[1,5-a]-pyridine] |
| 160 to 162 °C | CC(C)n1nc(-c2c(-c3ccccc3)nn3ccc(OCCN4CCOCC4)cc23)ccc1=O [Example 6, 5-[2-(4-morpholinyl)ethoxy]-3-(3-oxo-2-isopropyl-2,3-dihydropyridazin-6-yl)-2-phenylpyrazolo[1,5-a]pyridine] |
| 155 to 157 °C | COc1ccc(S(=O)(=O)Oc2ccn3nc(-c4ccccc4)c(-c4ccc(=O)n(C(C)C)n4)c3c2)cc1 [Example 7, 5-(4-methoxyphenylsulfonyl)oxy-3-(3-oxo-2-isopropyl-2,3-dihydropyridazin-6-yl)-2-phenylpyrazolo[1,5-a]pyridine] |
| 154.5 to 155.5 °C | CC(C)n1nc(-c2c(-c3ccccc3)nn3ccc(OCCc4ccccc4)cc23)ccc1=O [Example 9, 5-Phenethyloxy-3-(3-oxo-2-isopropyl-2,3-dihydropyridazin-6-yl)-2-phenylpyrazolo[1,5-a]pyridine] |
| 162 to 163 °C | CC(C)Oc1ccn2nc(-c3ccccc3)c(-c3ccc(=O)n(C(C)C)n3)c2c1 [Example 10, 5-Isopropoxy-3-(3-oxo-2-isopropyl-2,3-dihydropyridazin-6-yl)-2-phenylpyrazolo[1,5-a]pyridine] |
| 150 to 151 °C | CC(C)n1nc(-c2c(-c3ccccc3)nn3ccc(OCc4ccccn4)cc23)ccc1=O [Example 12, 5-(2-Pyridinylmethoxy)-3-(3-oxo-2-isopropyl-2,3-dihydropyridazin-6-yl)-2-phenylpyrazolo[1,5-a]pyridine] |
| 125 to 126 °C | CC(C)n1nc(-c2c(-c3ccccc3)nn3ccc(OCCCN(C)C)cc23)ccc1=O [Example 15, 5-(3-Dimethylaminopropoxy)-3-(3-oxo-2-isopropyl-2,3-dihydropyridazin-6-yl)-2-phenylpyrazolo[1,5-a]pyridine] |
| 144 to 144.5 °C | CC(C)n1nc(-c2c(-c3ccccc3)nn3ccc(OCCN4CCCCC4)cc23)ccc1=O [Example 16, 5-[2-(1-Piperidinyl)ethoxy]-3-(3-oxo-2-isopropyl-2,3-dihydropyridazin-6-yl)-2-phenylpyrazolo[1,5-a]pyridine] |
| 149 to 150 °C | CC(C)n1nc(-c2c(-c3ccccc3)nn3ccc(OCCN4CCCC4)cc23)ccc1=O [Example 17, 5-[2-(1-Pyrrolidinyl)ethoxy]-3-(3-oxo-2-isopropyl-2,3-dihydropyridazin-6-yl)-2-phenylpyrazolo[1,5-a]pyridine] |
| 145 to 146 °C | CC(C)n1nc(-c2c(-c3ccccc3)nn3ccc(OCCN4[C@H](C)COC[C@@H]4C)cc23)ccc1=O [Example 18, 5-[2-{(3R,5S)-3,5-Dimethyl-4-morpholinyl}ethoxy]-3-(3-oxo-2-isopropyl-2,3-dihydropyridazin-6-yl)-2-phenylpyrazolo[1,5-a]pyridine] |
| 218 to 219.5 °C | CC(C)n1nc(-c2c(-c3ccccc3)nn3ccc(OCc4ccncc4)cc23)ccc1=O [Example 19, 5-(4-Pyridinylmethoxy)-3-(3-oxo-2-isopropyl-2,3-dihydropyridazin-6-yl)-2-phenylpyrazolo[1,5-a]pyridine] |
| 145 to 146 °C | CC(C)n1nc(-c2c(-c3ccccc3)nn3ccc(OCc4cccnc4)cc23)ccc1=O [Example 20, 5-(3-Pyridinylmethoxy)-3-(3-oxo-2-isopropyl-2,3-dihydropyridazin-6-yl)-2-phenylpyrazolo[1,5-a]pyridine] |
| 161.5 to 162.5 °C | CCCOc1ccn2nc(-c3ccccc3)c(-c3ccc(=O)n(C(C)C)n3)c2c1 [Example 21, 5-Propoxy-3-(3-oxo-2-isopropyl-2,3-dihydropyridazin-6-yl)-2-phenylpyrazolo[1,5-a]pyridine] |
| 163 to 163.5 °C | CC(C)CCOc1ccn2nc(-c3ccccc3)c(-c3ccc(=O)n(C(C)C)n3)c2c1 [Example 22, 5-Isopentyloxy-3-(3-oxo-2-isopropyl-2,3-dihydropyridazin-6-yl)-2-phenylpyrazolo[1,5-a]pyridine] |
| 146 to 147 °C | CC(C)n1nc(-c2c(-c3ccccc3)nn3ccc(OCCC4CCCCC4)cc23)ccc1=O [Example 23, 5-(2-Cyclohexylethoxy)-3-(3-oxo-2-isopropyl-2,3-dihydropyridazin-6-yl)-2-phenylpyrazolo[1,5-a]pyridine] |
| 157.5 to 158 °C | CC(C)n1nc(-c2c(-c3ccccc3)nn3ccc(OCCN4C[C@@H](C)O[C@@H](C)C4)cc23)ccc1=O [Example 24, 5-[2-{(2R,6S)-2,6-Dimethyl-4-morpholinyl}ethoxy]-3-(3-oxo-2-isopropyl-2,3-dihydropyridazin-6-yl)-2-phenylpyrazolo[1,5-a]pyridine] |

| melting point | Structure (SMILES) |
| --- | --- |
| 92.5 to 94.5 °C | CCN(CC)CCOc1ccn2nc(-c3ccccc3)c(-c3ccc(=O)n(C(C)C)n3)c2c1 [Example 25, 5-[2-(Diethylamino)ethoxy]-3-(3-oxo-2-isopropyl-2,3-dihydropyridazin-6-yl)-2-phenylpyrazolo[1,5-a]pyridine] |
| 181 to 182 °C | CCOc1ccn2nc(-c3ccccc3)c(-c3ccc(=O)n(C(C)C)n3)c2c1 [Example 26, 5-Ethoxy-3-(3-oxo-2-isopropyl-2,3-dihydropyridazin-6-yl)-2-phenylpyrazolo[1,5-a]pyridine] |
| 172.5 to 173.5 °C | CC(=O)COc1ccn2nc(-c3ccccc3)c(-c3ccc(=O)n(C(C)C)n3)c2c1 [Example 27, 5-(2-Oxopropoxy)-3-(3-oxo-2-isopropyl-2,3-dihydropyridazin-6-yl)-2-phenylpyrazolo[1,5-a]pyridine] |
| 162 to 163 °C | CC(C)n1nc(-c2c(-c3ccccc3)nn3ccc(OCCN4CCCC4=O)cc23)ccc1=O [Example 28, 5-[2-(2-Oxo-1-pyrrolidinyl)ethoxy]-3-(3-oxo-2-isopropyl-2,3-dihydropyridazin-6-yl)-2-phenylpyrazolo [1,5-a]pyridine] |
| 176 to 179 °C | CC(C)n1nc(-c2c(-c3ccccc3)nn3ccc(OC4CCN(C(=O)OC(C)(C)C)CC4)cc23)ccc1=O [Example 29, tert-Butyl 4-{[3-(3-oxo-2-isopropyl-2,3-dihydropyridazin-6-yl)-2-phenylpyrazolo[1,5-a]pyridin-5-yl]oxy}-1-piperidinecarboxylate] |
| 174 to 174.5 °C | CC(C)n1nc(-c2c(-c3ccccc3)nn3ccc(OCC(=O)OCc4ccccc4)cc23)ccc1=O [Example 32, Benzyl {[3-(3-oxo-2-isopropyl-2,3-dihydropyridazin-6-yl)-2-phenylpyrazolo[1,5-a]pyridin-5-yl]oxy}acetate] |
| 159.5 to 160.5 °C | CC(C)n1nc(-c2c(-c3ccccc3)nn3ccc(OCCC4CCCC4)cc23)ccc1=O [Example 33, 5-(2-cyclopentylethoxy)-3-(3-oxo-2-isopropyl-2,3-dihydropyridazin-6-yl)-2-phenylpyrazolo[1,5-a]pyridine] |
| 218.5 to 219.5 °C | CC(C)n1nc(-c2c(-c3ccccc3)nn3ccc(Oc4ccncc4)cc23)ccc1=O [Example 35, 5-(4-Pyridinyloxy)-3-(3-oxo-2-isopropyl-2,3-dihydropyridazin-6-yl)-2-phenylpyrazolo[1,5-a]pyridine] |
| 177.5 to 178.5 °C | CC(=O)Nc1cccc(Oc2ccn3nc(-c4ccccc4)c(-c4ccc(=O)n(C(C)C)n4)c3c2)c1 [Example 36, N-(3-{[3-(3-oxo-2-isopropyl-2,3-dihydropyridazin-6-yl)-2-phenylpyrazolo[1,5-a]pyridin-5-yl]oxy}phenyl)acetamide] |
| 181 to 182 °C | CC(C)n1nc(-c2c(-c3ccccc3)nn3ccc(Oc4ccccc4)cc23)ccc1=O [Example 37, 5-Phenoxy-3-(3-oxo-2-isopropyl-2,3-dihydropyridazin-6-yl)-2-phenylpyrazolo[1,5-a]pyridine] |
| 193 to 194 °C | CCOC(=O)COc1ccn2nc(-c3ccccc3)c(-c3ccc(=O)n(C(C)C)n3)c2c1 [Example 38, Ethyl {[3-(3-oxo-2-isopropyl-2,3-dihydropyridazin-6-yl)-2-phenylpyrazolo[1,5-a]pyridin-5-yl]oxy}acetate] |
| 189 to 190 °C | CC(C)n1nc(-c2c(-c3ccccc3)nn3ccc(OCC(=O)N(C)C)cc23)ccc1=O [Example 40, 2-{[3-(3-oxo-2-isopropyl-2,3-dihydropyridazin-6-yl)-2-phenylpyrazolo[1,5-a]pyridin-5-yl]oxy}-N,N-dimethylacetamide] |
| 125 to 126.5 °C | CCN(CC)C(=O)COc1ccn2nc(-c3ccccc3)c(-c3ccc(=O)n(C(C)C)n3)c2c1 [Example 41, N,N-Diethyl-2-{[3-(3-oxo-2-isopropyl-2,3-dihydropyridazin-6-yl)-2-phenylpyrazolo[1,5-a]pyridin-5-yl]oxy}acetamide] |
| 208 to 209 °C | CC(C)n1nc(-c2c(-c3ccccc3)nn3ccc(OCC(=O)Nc4ccccc4)cc23)ccc1=O [Example 44, 2-{[3-(3-Oxo-2-isopropyl-2,3-dihydropyridazin-6-yl)-2-phenylpyrazolo[1,5-a]pyridin-5-yl]oxy}-N-phenylacetamide] |
| 167.5 to 168.5 °C | CC(C)CNC(=O)COc1ccn2nc(-c3ccccc3)c(-c3ccc(=O)n(C(C)C)n3)c2c1 [Example 45, N-Isobutyl-2-{[3-(3-oxo-2-isopropyl-2,3-dihydropyridazin-6-yl)-2-phenylpyrazolo [1,5-a]pyridin-5-yl]oxy}acetamide] |
| 210.5 to 211 °C | CC(C)n1nc(-c2c(-c3ccccc3)nn3ccc(OC4CCOCC4)cc23)ccc1=O [Example 46, 5-(Tetrahydropyran-4-yl)oxy-3-(3-oxo-2-isopropyl-2,3-dihydropyridazin-6-yl)-2-phenylpyrazolo[1,5-a]pyridine] |
| 148 to 150 °C | COc1ccc(Oc2ccn3nc(-c4ccccc4)c(-c4ccc(=O)n(C(C)C)n4)c3c2)nc1 [Example 47, 5-[(5-Methoxy-2-pyridinyl)oxy]-3-(3-oxo-2-isopropyl-2,3-dihydropyridazin-6-yl)-2-phenylpyrazolo[1,5-a]pyridine] |
